Experimental findings from patent US20230167073A1 (Teijin Pharma Limited, priority 2020, published 2023) are described below.

This test addresses T1, Human TRPC6 (Homo sapiens, UniProt Q9Y210).
T1 construct: expressed in transfected cells
T1 sequence (Q9Y210 1-931): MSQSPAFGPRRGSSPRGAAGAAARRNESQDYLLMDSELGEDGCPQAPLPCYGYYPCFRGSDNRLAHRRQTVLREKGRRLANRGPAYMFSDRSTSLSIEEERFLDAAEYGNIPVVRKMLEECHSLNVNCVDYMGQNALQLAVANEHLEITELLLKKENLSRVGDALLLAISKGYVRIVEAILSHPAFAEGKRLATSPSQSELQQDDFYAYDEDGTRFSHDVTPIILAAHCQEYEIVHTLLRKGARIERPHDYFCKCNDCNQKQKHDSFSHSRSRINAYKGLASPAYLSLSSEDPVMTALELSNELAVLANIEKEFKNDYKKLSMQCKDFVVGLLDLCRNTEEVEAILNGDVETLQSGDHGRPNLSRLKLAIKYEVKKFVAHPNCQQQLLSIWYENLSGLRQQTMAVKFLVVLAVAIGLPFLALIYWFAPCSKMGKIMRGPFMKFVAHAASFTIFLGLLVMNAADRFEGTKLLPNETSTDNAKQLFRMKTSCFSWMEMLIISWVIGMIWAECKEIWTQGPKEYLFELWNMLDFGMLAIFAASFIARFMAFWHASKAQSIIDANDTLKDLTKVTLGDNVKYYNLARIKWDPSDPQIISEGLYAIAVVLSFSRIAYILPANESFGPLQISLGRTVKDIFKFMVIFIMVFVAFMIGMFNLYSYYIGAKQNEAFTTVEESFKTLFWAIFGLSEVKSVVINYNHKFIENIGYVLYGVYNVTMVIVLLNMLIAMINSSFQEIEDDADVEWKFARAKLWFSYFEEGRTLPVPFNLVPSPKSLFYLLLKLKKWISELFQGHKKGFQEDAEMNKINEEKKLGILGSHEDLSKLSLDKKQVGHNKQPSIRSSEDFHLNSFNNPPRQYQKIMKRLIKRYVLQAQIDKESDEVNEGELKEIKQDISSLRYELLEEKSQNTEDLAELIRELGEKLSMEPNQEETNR
Put plainly: Evaluation of TRPC6 channel inhibitory activity (1), FLIPR Calcium 5 Assay Kit, OAG stimulation (Compound Nos. 1-1293). It is filed as cell-based. Conditions: Human TRPC6 stably-expressing cells, OAG 30 μM, FLIPR Calcium 5 Assay Kit; read-out: Inhibitory activity (pIC50 class) (converted). In a few lines: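 Calcium influx read by FLIPR fluorescence in cells stably expressing human TRPC6, dye-loaded 30 min. Compounds preincubated 20 min, then OAG stimulation at 30 μM final. Inhibition fitted by four-parameter logistic regression to give pIC50, reported as +/++/+++ categories.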
With `CC(C)Cn1cc(Cc2cc(F)ccc2-c2ncc(CN)cn2)cn1` [compound 1223, [2-[4-fluoro-2-[[1-(2-methylpropyl)pyrazol-4-yl]methyl]phenyl]pyrimidin-5-yl]methanamine], the IC50 was above 1000 nM.

`Cn1nc(C2CC2)cc1Oc1cc(C#N)ccc1-c1ncc(C(N)CO)cn1` (stereo not drawn) [compound 420, 4-[5-(1-amino-2-hydroxyethyl)pyrimidin-2-yl]-3-(5-cyclopropyl-2-methylpyrazol-3-yl)oxybenzonitrile]: the IC50 was 10 to 1000 nM.

As to `CC(C)Cn1cc(Cc2cc(C#N)ccc2-c2ncc(CN)cn2)cn1` [compound 1196, 4-[5-(aminomethyl)pyrimidin-2-yl]-3-[[1-(2-methylpropyl)pyrazol-4-yl]methyl]benzonitrile], the IC50 was 10 to 1000 nM.

As to `CC(C)Cn1cc(Oc2cc(C#N)ccc2-c2ncc(CN)cn2)cn1` [compound 908, 4-[5-(aminomethyl)pyrimidin-2-yl]-3-[1-(2-methylpropyl)pyrazol-4-yl]oxybenzonitrile], the IC50 is below 10 nM.

`CC(C)n1cc(C(=O)c2cc(C#N)ccc2-c2ncc(CCN)cn2)cn1` [compound 1044, 4-[5-(2-aminoethyl)pyrimidin-2-yl]-3-(1-propan-2-ylpyrazole-4-carbonyl)benzonitrile]: the IC50 is below 10 nM.

For `Cc1cc(Oc2cc(C#N)ccc2-c2ccc(CN)cn2)cc(NC2CC2)n1` [compound 645, 4-[5-(aminomethyl)pyridin-2-yl]-3-[2-(cyclopropylamino)-6-methylpyridin-4-yl]oxybenzonitrile], the IC50 was 10 to 1000 nM.

On to `CC(N)c1ccc(-c2ccc(C#N)cc2Oc2cc(-c3ccccn3)nn2C)nc1` (stereo not drawn) [compound 396, 4-[5-(1-aminoethyl)pyridin-2-yl]-3-(2-methyl-5-pyridin-2-ylpyrazol-3-yl)oxybenzonitrile], for which the IC50 was below 10 nM.

With `Cc1nc(Oc2cc(C#N)ccc2-n2cnc(C(O)CN)c2)cc(N2CCOCC2)n1` (stereo not drawn) [Compound 169, 4-[4-(2-amino-1-hydroxyethyl)imidazol-1-yl]-3-(2-methyl-6-morpholin-4-ylpyrimidin-4-yl)oxybenzonitrile], the IC50 was above 1000 nM.

As to `Cc1nc(OCC(C)C)cc(Oc2cc(C#N)ccc2-c2ncc(CCN)cn2)n1` [compound 849, 4-[5-(2-aminoethyl)pyrimidin-2-yl]-3-[2-methyl-6-(2-methylpropoxy)pyrimidin-4-yl]oxybenzonitrile], the IC50 is below 10 nM.

As for `Cc1cc(Oc2cc(C#N)ccc2-c2ncc(CCN)cn2)cc(N2CCN(C)C(=O)C2)n1` [compound 465, 4-[5-(2-aminoethyl)pyrimidin-2-yl]-3-[2-methyl-6-(4-methyl-3-oxopiperazin-1-yl)pyridin-4-yl]oxybenzonitrile], the IC50 was above 1000 nM.

Take `Cc1cc(Oc2cc(C#N)ccc2-c2ncc(CCN)cn2)cc(-c2nccn2C)n1` [compound 687, 4-[5-(2-aminoethyl)pyrimidin-2-yl]-3-[2-methyl-6-(1-methylimidazol-2-yl)pyridin-4-yl]oxybenzonitrile]: the IC50 is above 1000 nM.

Turning to `N#Cc1ccc(-c2ncc(CCN)cn2)c(Oc2cnn(-c3ccccn3)c2)c1` [compound 912, 4-[5-(2-aminoethyl)pyrimidin-2-yl]-3-(1-pyridin-2-ylpyrazol-4-yl)oxybenzonitrile], the IC50 was below 10 nM.

Regarding `Cc1nc(Oc2cc(C#N)ccc2-n2cc([C@@H](O)CN)cn2)cc(-c2ccccc2C)n1` [compound 358, 4-[4-[(1R)-2-amino-1-hydroxyethyl]pyrazol-1-yl]-3-[2-methyl-6-(2-methylphenyl)pyrimidin-4-yl]oxybenzonitrile], the IC50 was 10 to 1000 nM.

For `CN(CC(F)(F)F)c1cc(Oc2cc(C#N)ccc2-c2ncc(CCN)cn2)n(C)n1` [compound 787, 4-[5-(2-aminoethyl)pyrimidin-2-yl]-3-[2-methyl-5-[methyl(2,2,2-trifluoroethyl)amino]pyrazol-3-yl]oxybenzonitrile], the IC50 is below 10 nM.

Consider `Cc1cc(Oc2nc(C#N)ccc2-c2ncc(CN)cn2)cc(N2CCOCC2)n1` [compound 1285, 5-[5-(aminomethyl)pyrimidin-2-yl]-6-(2-methyl-6-morpholin-4-ylpyridin-4-yl)oxypyridine-2-carbonitrile], for which the IC50 is above 1000 nM.

`Cc1cc(Oc2cc(C#N)c(C)cc2-c2ncc(CCN)cn2)cc(N2CCOCC2)n1` [compound 900, 4-[5-(2-aminoethyl)pyrimidin-2-yl]-2-methyl-5-(2-methyl-6-morpholin-4-ylpyridin-4-yl)oxybenzonitrile]: the IC50 is below 10 nM.

As for `N#Cc1ccc(-c2ncc(CCN)cn2)c(Cn2cc(N3CCOCC3)cn2)c1` [compound 1200, 4-[5-(2-aminoethyl)pyrimidin-2-yl]-3-[(4-morpholin-4-ylpyrazol-1-yl)methyl]benzonitrile], the IC50 is 10 to 1000 nM.

For the compound `Cc1nc(Oc2cc(C#N)ccc2-n2cc([C@@H](O)CN)cn2)cc(N2CC(F)(F)C2)n1` [Compound 236, 4-[4-[(1R)-2-amino-1-hydroxyethyl]pyrazol-1-yl]-3-[6-(3,3-difluoroazetidin-1-yl)-2-methylpyrimidin-4-yl]oxybenzonitrile], the IC50 is 10 to 1000 nM.

In the case of `Cc1cc(Oc2cc(C#N)ccc2-c2ncc([C@H](O)CN)cn2)cc(N2C[C@@H]3C[C@H]2CO3)n1` [compound 528, 4-[5-[(1S)-2-amino-1-hydroxyethyl]pyrimidin-2-yl]-3-[2-methyl-6-[(1S,4S)-2-oxa-5-azabicyclo[2.2.1]heptan-5-yl]pyridin-4-yl]oxybenzonitrile], the IC50 is 10 to 1000 nM.

On to `COCc1cn(Cc2cc(C#N)ccc2-c2ccc(CCN)cc2)cn1` [compound 1118, 4-[4-(2-aminoethyl)phenyl]-3-[[4-(methoxymethyl)imidazol-1-yl]methyl]benzonitrile], for which the IC50 is above 1000 nM.

As for `N#Cc1ccc(-c2ncc(CCN)cn2)c(Oc2nnc(N3CCOCC3)s2)c1` [compound 723, 4-[5-(2-aminoethyl)pyrimidin-2-yl]-3-[(5-morpholin-4-yl-1,3,4-thiadiazol-2-yl)oxy]benzonitrile], the IC50 is 10 to 1000 nM.

Regarding `N#Cc1ccc(-c2ccc(CCN)cc2)c(C(O)c2cc(-c3ccccc3)no2)c1` (stereo not drawn) [compound 1229, 4-[4-(2-aminoethyl)phenyl]-3-[hydroxy-(3-phenyl-1,2-oxazol-5-yl)methyl]benzonitrile], the IC50 was 10 to 1000 nM.

Regarding `N#Cc1ccc(-c2ccc(CCN)cn2)c(Cn2cnc(-c3ccccc3Cl)c2)c1` [compound 1144, 4-[5-(2-aminoethyl)pyridin-2-yl]-3-[[4-(2-chlorophenyl)imidazol-1-yl]methyl]benzonitrile], the IC50 is below 10 nM.

`N#Cc1ccc(-c2ccc(CCN)cc2)c(Oc2cc(-c3ccccc3)no2)c1` [compound 306, 4-[4-(2-aminoethyl)phenyl]-3-[(3-phenyl-1,2-oxazol-5-yl)oxy]benzonitrile]: the IC50 was below 10 nM.

For the compound `Cn1nc(N2CCCC2)cc1Cc1cc(C#N)ccc1-c1ccc(CCN)cn1` [compound 1212, 4-[5-(2-aminoethyl)pyridin-2-yl]-3-[(2-methyl-5-pyrrolidin-1-ylpyrazol-3-yl)methyl]benzonitrile], the IC50 was below 10 nM.

As for `Cc1nc(-c2ccccc2)cn1Cc1cc(C#N)ccc1-c1ccc(CCN)cc1` [compound 1120, 4-[4-(2-aminoethyl)phenyl]-3-[(2-methyl-4-phenylimidazol-1-yl)methyl]benzonitrile], the IC50 is below 10 nM.

Consider `Cc1nc(Oc2cc(C#N)ccc2-c2ccc(CCNCCCO)cc2)cc(N2CCOCC2)n1` [Compound 58, 4-[4-[2-(3-Hydroxypropylamino)ethyl]phenyl]-3-(2-methyl-6-morpholin-4-ylpyrimidin-4-yl)oxybenzonitrile], for which the IC50 was 10 to 1000 nM.

On to `Cn1nc(-c2ccccn2)cc1Oc1cc(F)ccc1-c1ncc(CCN)cn1` [compound 977, 2-[2-[4-fluoro-2-(2-methyl-5-pyridin-2-ylpyrazol-3-yl)oxyphenyl]pyrimidin-5-yl]ethanamine], for which the IC50 was below 10 nM.

With `CN(C)c1cc(Oc2cc(C#N)ccc2-c2ncc(CCN)cn2)n(C)n1` [compound 629, 4-[5-(2-aminoethyl)pyrimidin-2-yl]-3-[5-(dimethylamino)-2-methylpyrazol-3-yl]oxybenzonitrile], the IC50 was below 10 nM.

Turning to `CCN(CC)c1cc(Cc2cc(C#N)ccc2-c2ccc(CCN)cn2)n(C)n1` [compound 1208, 4-[5-(2-aminoethyl)pyridin-2-yl]-3-[[5-(diethylamino)-2-methylpyrazol-3-yl]methyl]benzonitrile], the IC50 was below 10 nM.
